In ChEMBL document CHEMBL5442663, “ASAP - Solubility” (2024):
Converted amounts (≈) assume the structure as drawn. “And” between values parts separate entries of the source, which are not always exact repeats. Equal entries are not always repeated.

Assay: Kinetic solubility of compound by measuring concentration at pH 7.4 in saturated PBS buffer by UV LCMS/MS using calibration curves. The assay has been performed by Enamine biological services, Bienta Ltd.The protocol is publicly available: dx.doi.org/10.17504/protocols.io.j8nlk8y41l5r/v1
Format: physicochemical
Settings: for solubility kinetic: PBS buffer; for Solubility (mean): buffer

SMILES | solubility kinetic | Solubility (mean)
CC(C)[C@@H](Nc1ncnc2[nH]ccc12)c1ccc2c(c1)S(=O)(=O)CCC2 | 385 µM (≈ 143 µg/mL) | 386 µM (≈ 143 µg/mL)
CCNC(=O)c1cc2c(N[C@@H](c3ccc4c(c3)S(=O)(=O)CCO4)C(C)C)ncnc2[nH]1 | 328 µM (≈ 145 µg/mL) | 
Cn1ncc(-c2cc3c(N[C@@H](c4ccc5c(n4)OCCO5)C(C)(C)C)ncnc3[nH]2)c1C#N | 25 µM (≈ 11.1 µg/mL) | 24 µM (≈ 10.7 µg/mL)
CNC(=O)c1cc2c(N[C@@H](c3ccc4c(c3)OCCO4)C(C)C)ncnc2[nH]1 | 380 µM (≈ 145 µg/mL) | 
Cc1nn(C)cc1-c1cc2c(N[C@H](c3ccc4c(c3)S(=O)(=O)CCC4)C(C)C)ncnc2[nH]1 | 65 µM (≈ 30.2 µg/mL) | 
CC(C)[C@@H](Nc1ncnc2[nH]c(C(=O)N[C@@H]3CCN(C)C3)cc12)c1ccc2c(c1)S(=O)(=O)CCC2 | 392 µM (≈ 195 µg/mL) | 
CC(C)[C@@H](Nc1ncnc2[nH]c(-c3cnn(C)c3)cc12)c1ccc2c(c1)S(=O)(=O)NCC2 | 105 µM (≈ 47.4 µg/mL) | 
COc1ccc([C@@H](Cc2nnn[nH]2)NC(=O)c2ncnc3[nH]ccc23)cc1 | 395 µM (≈ 144 µg/mL) | 
CC(C)[C@H](Nc1ncnc2[nH]c(-c3cnn(C)c3C#N)cc12)c1ccc2c(c1)NC(=O)CO2 | 26 µM (≈ 11.5 µg/mL) | 
CC(C)[C@H](Nc1ncnc2[nH]c(-c3cnn(C)c3)cc12)c1ccc2c(c1)S(=O)(=O)CCC2 | 111 µM (≈ 50 µg/mL) | 
CC(C)[C@H](Nc1ncnc2[nH]ccc12)c1ccc2c(c1)S(=O)(=O)CCC2 | 374 µM (≈ 139 µg/mL) | 
CC(C)[C@@H](Nc1ncnc2[nH]c(-c3cnn(CC(N)=O)c3)cc12)c1ccc2c(n1)OCCO2 | 385 µM (≈ 173 µg/mL) | 395 µM (≈ 177 µg/mL)
CC(C)[C@@H](Nc1ncnc2[nH]c(-c3ccc4cncn4c3)cc12)c1ccc2c(c1)S(=O)(=O)CCC2 | 14 µM (≈ 6.81 µg/mL) | 
CC(C)[C@@H](Nc1ncnc2[nH]c(-c3cnn(CC(N)=O)c3)cc12)c1ccc2c(c1)S(=O)(=O)CCC2 | 341 µM (≈ 168 µg/mL) | 335 µM (≈ 165 µg/mL)
CNC(=O)c1cccc(-c2cc3c(N[C@H](c4ccc5c(c4)S(=O)(=O)CCC5)C(C)C)ncnc3[nH]2)c1 | 13 µM (≈ 6.55 µg/mL) | 
Cn1ncc(-c2cc3c(N[C@@H](c4ccc5c(c4)OCCO5)C(C)(C)C)ncnc3[nH]2)c1C#N | 25 µM (≈ 11.1 µg/mL) | 

SMILES | solubility kinetic | Solubility (mean)
CCNC(=O)c1cc2c(N[C@H](c3ccc4c(c3)OCCO4)C(C)C)ncnc2[nH]1 | 263 µM (≈ 104 µg/mL) | 
C[C@@H](C(=O)O)[C@@H](NC(=O)c1ncnc2[nH]ccc12)c1ccc(Br)cc1 | 386 µM (≈ 156 µg/mL) | 
CC(C)(C)[C@@H](Nc1ncnc2[nH]c(-c3cnn(CC(N)=O)c3)cc12)c1ccc2c(c1)OCCO2 | 195 µM (≈ 90 µg/mL) | 104 µM (≈ 48 µg/mL)
CNC(=O)c1c[nH]c2ncnc(N[C@@H](c3ccc4c(c3)S(=O)(=O)CCC4)C(C)C)c12 | 390 µM (≈ 167 µg/mL) | 204 µM (≈ 87.2 µg/mL)
CC(C)[C@H](CO)Nc1ncnc2[nH]ccc12 | ≥ 400 µM | 
O=C(Nc1ccccc1)Nc1ccc(C(=O)NC2c3cccc(O)c3CC2C(=O)O)cc1 (stereo not given) | 319 µM (≈ 138 µg/mL) | 
CC(C)(C)[C@H](Nc1ncnc2[nH]c(-c3cnn(CC(N)=O)c3)cc12)c1ccc2c(n1)OCCO2 | 372 µM (≈ 172 µg/mL) | 
CNC(=O)c1cc2c(N[C@H](c3ccc4c(c3)S(=O)(=O)CCC4)C(C)C)ncnc2[nH]1 | 374 µM (≈ 160 µg/mL) | 
CC(C)[C@H](Nc1ncnc2[nH]c(C(=O)N[C@H]3CCN(C)C3)cc12)c1ccc2c(c1)S(=O)(=O)CCC2 | 396 µM (≈ 197 µg/mL) | 
COCCNC(=O)c1c[nH]c2ncnc(N[C@@H](c3ccc4c(c3)S(=O)(=O)CCC4)C(C)C)c12 | 378 µM (≈ 178 µg/mL) | 
CC(C)[C@H](Nc1ncnc2[nH]cc(C(=O)NC3CC3)c12)c1ccc2c(c1)S(=O)(=O)CCC2 | 19 µM (≈ 8.62 µg/mL) | 
CC(C)[C@H](Nc1ncnc2[nH]ccc12)c1ccc2c(c1)NC(=O)CO2 | 371 µM (≈ 125 µg/mL) | 
COc1ccc([C@@H](NC(=O)c2[nH]cnc3nccc2-3)C(C)c2nnn[nH]2)cc1 (stereo not given in full) | ≥ 400 µM | 
CC(C)[C@H](Nc1ncnc2[nH]c(C(=O)N[C@@H]3CCN(C)C3)cc12)c1ccc2c(c1)S(=O)(=O)CCC2 | 366 µM (≈ 182 µg/mL) | 
O=C(Nc1cccc2c(C(=O)N[C@@H]3c4ccccc4C[C@@H]3C(=O)O)c[nH]c12)NC1CC1 | ≥ 400 µM | 
CCNC(=O)c1cc2c(N[C@H](c3ccc4c(c3)S(=O)(=O)CCC4)C(C)C)ncnc2[nH]1 | 337 µM (≈ 149 µg/mL) | 

Results, then the compound that gave them:

solubility kinetic | Solubility (mean) | SMILES
392 µM (≈ 195 µg/mL) |  | CC(C)[C@@H](Nc1ncnc2[nH]c(C(=O)N[C@H]3CCN(C)C3)cc12)c1ccc2c(c1)S(=O)(=O)CCC2
63 µM (≈ 29.3 µg/mL) |  | Cc1nn(C)cc1-c1cc2c(N[C@@H](c3ccc4c(c3)S(=O)(=O)CCC4)C(C)C)ncnc2[nH]1
336 µM (≈ 148 µg/mL) | 316 µM (≈ 140 µg/mL) | CCNC(=O)c1cc2c(N[C@@H](c3ccc4c(c3)S(=O)(=O)CCC4)C(C)C)ncnc2[nH]1
15 µM (≈ 7.55 µg/mL) |  | CNC(=O)c1cccc(-c2cc3c(N[C@@H](c4ccc5c(c4)S(=O)(=O)CCC5)C(C)C)ncnc3[nH]2)c1
338 µM (≈ 167 µg/mL) |  | CC(C)[C@H](Nc1ncnc2[nH]c(-c3cnn(CC(N)=O)c3)cc12)c1ccc2c(c1)S(=O)(=O)CCC2
22 µM (≈ 10.5 µg/mL) |  | CC(C)[C@H](Nc1ncnc2[nH]c(-c3cnn(C)c3C#N)cc12)c1ccc2c(c1)S(=O)(=O)CCC2
321 µM (≈ 154 µg/mL) | 345 µM (≈ 165 µg/mL) | CNCc1cc(-c2cc3c(N[C@@H](c4ccc5c(c4)S(=O)(=O)CCC5)C(C)C)ncnc3[nH]2)co1
89 µM (≈ 41.1 µg/mL) |  | CC(C)(C)[C@H](Nc1ncnc2[nH]c(-c3cnn(CC(N)=O)c3)cc12)c1ccc2c(c1)OCCO2
358 µM (≈ 172 µg/mL) |  | CNCc1cc(-c2cc3c(N[C@H](c4ccc5c(c4)S(=O)(=O)CCC5)C(C)C)ncnc3[nH]2)co1
28 µM (≈ 12.4 µg/mL) |  | CC(C)[C@H](Nc1ncnc2[nH]c(-c3cnn(C)c3C#N)cc12)c1ccc2c(n1)NC(=O)CO2
372 µM (≈ 179 µg/mL) |  | CNCc1cc(-c2cc3c(N[C@@H](c4ccc5c(c4)S(=O)(=O)NCC5)C(C)C)ncnc3[nH]2)co1
372 µM (≈ 139 µg/mL) |  | CC(C)[C@@H](Nc1ncnc2[nH]ccc12)c1ccc2c(c1)S(=O)(=O)CCO2
389 µM (≈ 131 µg/mL) | 374 µM (≈ 126 µg/mL) | CC(C)[C@@H](Nc1ncnc2[nH]ccc12)c1ccc2c(c1)NC(=O)CO2
344 µM (≈ 152 µg/mL) |  | CCNC(=O)c1cc2c(N[C@@H](c3ccc4c(c3)S(=O)(=O)NCC4)C(C)C)ncnc2[nH]1
306 µM (≈ 155 µg/mL) | 294 µM (≈ 149 µg/mL) | CNC(=O)Cn1cc(-c2cc3c(N[C@@H](c4ccc5c(c4)S(=O)(=O)CCC5)C(C)C)ncnc3[nH]2)cn1
89 µM (≈ 38.3 µg/mL) | 60 µM and 50 µM | CC(C)[C@@H](Nc1ncnc2[nH]c(-c3cnn(C)c3C#N)cc12)c1ccc2c(n1)OCCO2
53 µM (≈ 22.8 µg/mL) |  | CC(C)[C@H](Nc1ncnc2[nH]c(-c3cnn(C)c3C#N)cc12)c1ccc2c(n1)OCCO2
17 µM (≈ 7.3 µg/mL) | 20 µM (≈ 8.59 µg/mL) | CC(C)[C@@H](Nc1ncnc2[nH]c(-c3cnn(C)c3C#N)cc12)c1ccc2c(c1)OCCO2
257 µM (≈ 117 µg/mL) | 216 µM (≈ 98 µg/mL) | CC(C)[C@@H](Nc1ncnc2[nH]cc(C(=O)NC3CC3)c12)c1ccc2c(c1)S(=O)(=O)CCC2
6 µM (≈ 3.01 µg/mL) |  | CC(C)[C@@H](Nc1ncnc2[nH]c(-c3ccc4nnn(C)c4c3)cc12)c1ccc2c(c1)S(=O)(=O)CCC2
94 µM (≈ 42.4 µg/mL) | 111 µM (≈ 50 µg/mL) | CC(C)[C@@H](Nc1ncnc2[nH]c(-c3cnn(C)c3)cc12)c1ccc2c(c1)S(=O)(=O)CCC2
236 µM (≈ 109 µg/mL) |  | CC(C)[C@@H](Nc1ncnc2[nH]c(-c3cnn(CCC(N)=O)c3)cc12)c1ccc2c(c1)OCCO2

solubility kinetic | Solubility (mean) | SMILES
323 µM (≈ 164 µg/mL) |  | CNC(=O)Cn1cc(-c2cc3c(N[C@H](c4ccc5c(c4)S(=O)(=O)CCC5)C(C)C)ncnc3[nH]2)cn1
31 µM (≈ 16.3 µg/mL) |  | CC(C)[C@@H](Nc1ncnc2[nH]c(-c3cncc(S(C)(=O)=O)c3)cc12)c1ccc2c(c1)S(=O)(=O)CCC2
369 µM (≈ 158 µg/mL) | 397 µM (≈ 170 µg/mL) | CNC(=O)c1cc2c(N[C@@H](c3ccc4c(c3)S(=O)(=O)CCC4)C(C)C)ncnc2[nH]1
210 µM (≈ 99.9 µg/mL) | 205 µM (≈ 97.5 µg/mL) | CC(C)[C@@H](Nc1ncnc2[nH]c(-c3cnn(CC(=O)N(C)C)c3)cc12)c1ccc2c(c1)OCCO2
29 µM (≈ 12.9 µg/mL) | 28 µM (≈ 12.4 µg/mL) | CC(C)[C@@H](Nc1ncnc2[nH]c(-c3cnn(C)c3C#N)cc12)c1ccc2c(n1)NC(=O)CO2
34 µM (≈ 16.2 µg/mL) | 26 µM (≈ 12.4 µg/mL) | CC(C)[C@@H](Nc1ncnc2[nH]c(-c3cnn(C)c3C#N)cc12)c1ccc2c(c1)S(=O)(=O)CCC2
336 µM (≈ 144 µg/mL) |  | CNC(=O)c1c[nH]c2ncnc(N[C@H](c3ccc4c(c3)S(=O)(=O)CCC4)C(C)C)c12
345 µM (≈ 154 µg/mL) | 332 µM (≈ 149 µg/mL) | CC(C)[C@@H](Nc1ncnc2[nH]c(-c3cnn(CC(N)=O)c3)cc12)c1ccc2c(c1)OCCO2
289 µM (≈ 133 µg/mL) |  | CNC(=O)Cn1cc(-c2cc3c(N[C@@H](c4ccc5c(c4)OCCO5)C(C)C)ncnc3[nH]2)cn1
319 µM (≈ 122 µg/mL) |  | CNC(=O)c1c[nH]c2ncnc(N[C@@H](c3ccc4c(c3)OCCO4)C(C)C)c12
280 µM (≈ 125 µg/mL) |  | CC(C)[C@H](Nc1ncnc2[nH]c(-c3cnn(CC(N)=O)c3)cc12)c1ccc2c(c1)OCCO2
375 µM (≈ 138 µg/mL) |  | CC(C)[C@@H](Nc1ncnc2[nH]cc(C(N)=O)c12)c1ccc2c(c1)OCCO2
28 µM (≈ 11 µg/mL) |  | CNC(=O)c1c[nH]c2ncnc(N[C@@H](c3ccc4c(c3)NC(=O)CO4)C(C)C)c12
377 µM (≈ 169 µg/mL) |  | CC(C)[C@H](Nc1ncnc2[nH]c(-c3cnn(CC(N)=O)c3)cc12)c1ccc2c(n1)OCCO2
≥ 400 µM |  | CC(C)[C@@H](Nc1ncnc(N)c1Cl)c1ccc2c(c1)S(=O)(=O)CCC2
25 µM (≈ 11.5 µg/mL) |  | CC(C)[C@@H](Nc1ncnc2[nH]c(-c3cnn(CC(N)=O)c3)cc12)c1ccc2c(c1)NC(=O)CO2
372 µM (≈ 147 µg/mL) | 380 µM (≈ 150 µg/mL) | CNC(=O)c1cc2c(N[C@@H](c3ccc4c(c3)NC(=O)CO4)C(C)C)ncnc2[nH]1
≥ 400 µM |  | COc1ccc([C@@H](CC(=O)O)NC(=O)c2ncnc3[nH]ccc23)cc1
361 µM (≈ 188 µg/mL) |  | CC(C)[C@H](Nc1ncnc2[nH]c(-c3cnn(CC(=O)N(C)C)c3)cc12)c1ccc2c(c1)S(=O)(=O)CCC2
14 µM (≈ 4.51 µg/mL) |  | COc1ccc2c(c1)CCN(c1ncnc3[nH]ccc13)[C@H]2C(C)C
15 µM (≈ 6.44 µg/mL) |  | CC(C)[C@H](Nc1ncnc2[nH]c(-c3cnn(C)c3C#N)cc12)c1ccc2c(c1)OCCO2
